In patent US20190255073A1, “ESTERS OF 3-POLYAMINE DERIVATIVES OF BILE ACIDS FOR THE TREATMENT OF INFECTIONS” (VIRBAC, priority 2016, published 2019):
Values after ≈ are worked out from the molar mass of the structure shown. Read-outs that look alike come from different tables or passages of the source.

Experiments:
[1] = tested on: E. faecalis ATCC29212; experiment: MIC determination by microplate dilution, E. faecalis human strain; format: cell-based, Enterococcus faecalis; settings: Enterococcus faecalis, ATCC29212, Gram-positive, Mueller-Hinton medium, 24 h, 37° C.
Method: (§1) 1) Preparation of the Preculture
(§2) A negative control (2 mL of sterile culture medium)
(§3) A positive control (1940 μL of culture medium+40 μL of DMSO+20 μL of bacterial suspension) from a thawed biological strain (the biological strains are stored at −80° C. in glycerol).
(§4) The tubes were incubated at 37° C. for 24 hours at 100 rpm.
(§5) The microorganisms were handled under a type L2 laboratory fume cupboard and, before any handling, a UV cycle was programmed and only sterile material was used. […] The chemical compounds to be tested were prepared in a DMSO/methanol mixture (50/50) at a concentration of 5 mg/mL.
(§6) 2) Preparation of the Microplate for the Determination of the Minimum Inhibitory Concentration (MIC)
(§7) After 24 hours of incubation, a measurement of the optical density was taken using a spectrophotometer at 600 nm, collecting 100 μL of the bacterial suspension diluted in 900 μL of the sterile culture medium. This test required the use of a 96-well plate and the required volume of the microbial suspension to be seeded was calculated for an OD corresponding to a value equal to 0.01 in each well. In this plate, the first line corresponded to the negative control (195 μL of sterile culture medium in each well), the second line to the positive control (seeded culture medium supplemented with 2% of DMSO), the third line was loaded twice with bacterial suspension, 8 μL of test product were placed in each well. Thereafter, a 0.5 cascade dilution was performed from this line.
(§8) The first column served as inhibition control. A sterile filter was then placed on the microplate, allowing the passage of gases but not of contaminants. The microplate was incubated at 37° C. under a humid atmosphere for 24 hours.
(§9) NB: The medium used is Mueller-Hinton (MH) medium for bacteria. All the tests were performed in duplicate.
(§10) 4) Reading of the Results
(§11) After incubation, the filter was replaced with a transparent film, and an OD reading was then taken in an iEMS plate spectrophotometer at 620 nm. Calculation of the minimum inhibitory concentration (MIC) was performed.

[2] = tested on: E. coli ATCC28922; experiment: MIC determination by microplate dilution, E. coli human strain; format: cell-based, Escherichia coli; settings: Escherichia coli, ATCC28922, Gram-negative, Mueller-Hinton medium, 24 h, 37° C.
Method: as §1, §2, §3, §4, §5, §6, §7, §8, §9, §10, §11

[3] = tested on: P. aeruginosa (1051575); experiment: MIC determination by microplate dilution, P. aeruginosa animal strain; format: cell-based, Pseudomonas aeruginosa; settings: Pseudomonas aeruginosa, Gram-negative, Mueller-Hinton medium, 24 h, 37° C.
Method: as §1, §2, §3, §4, §5, §6, §7, §8, §9, §10, §11

[4] = tested on: S. intermedius (1051997); experiment: MIC determination by microplate dilution, S. intermedius animal strain; format: cell-based, Staphylococcus intermedius; settings: Staphylococcus intermedius, Gram-positive, Mueller-Hinton medium, 24 h, 37° C.
Method: as §1, §2, §3, §4, §5, §6, §7, §8, §9, §10, §11

[5] = tested on: S. aureus (340); experiment: MIC determination by microplate dilution, S. aureus animal strain; format: cell-based, Staphylococcus aureus; settings: Staphylococcus aureus, Gram-positive, Mueller-Hinton medium, 24 h, 37° C.
Method: as §1, §2, §3, §4, §5, §6, §7, §8, §9, §10, §11

[6] = tested on: CHO-K1 cells; experiment: WST1 cytotoxicity test on CHO-K1 cells; format: cell-based, Chinese hamster; settings: Cricetulus griseus, read-out: IC50 (μg/mL) CHO
Method: Test WST1 was used to measure the cytotoxic activity of the products. This is a colorimetric test which makes it possible to measure the viability and the degree of cell proliferation. It is based on cleavage of the colorless tetrazolium salts WST-1 (4-[3-(4-iodophenyl)-2-(4-nitrophenyl)-2H-5-tetrazolio]-1,3-benzene disulfonate) with mitochondrial dehydrogenases to the yellow-colored formazan derivative, which may be quantified by spectrophotometry at 420-480 nm.
The WST1 test was performed on Chinese hamster ovary cells. The CHO-K1 cells (ATCC, USA) are kept in culture on McCoy's 5A medium supplemented with 10% fetal calf serum, 2 mM of L-glutamine and a mixture of penicillin-streptomycin (100 U/ml: 10 μg/mL). The culture is incubated at 37° C. under an atmosphere enriched in CO2 (5%), and subcultured every two days.
The cells are transferred into 96-well plates (25 000 cells/mL) in whole McCoy's 5A medium, and maintained for 24 hours at 37° C. under a humid atmosphere enriched in CO2 (5%). Increasing concentrations of test products are added to the wells in double tests and 8 growth controls containing the cells in the medium alone are included in each series of tests. After 24 hours at 37° C. (5% CO2), the culture medium is removed, the cells are rinsed in phosphate buffer (PBS) and 50 μL of PBS containing 10% of reagent WST1 are added to each well. After 20 minutes of incubation at 37° C., the results are read by spectrophotometry at 450 nm.
The results are expressed in dose-response relationships, modeled by nonlinear regression analysis using the TableCurve software. The 50% inhibitory concentration (IC50) represents the concentration of product that is capable of reducing the cell viability by 50%.

[7] = tested on: E. coli (1956); experiment: MIC determination by microplate dilution, E. coli animal strain; format: cell-based, Escherichia coli; settings: Escherichia coli, Gram-negative, Mueller-Hinton medium, 24 h, 37° C.
Method: as §1, §2, §3, §4, §5, §6, §7, §8, §9, §10, §11

[8] = tested on: S. aureus ATCC25923; experiment: MIC determination by microplate dilution, S. aureus human strain; format: cell-based, Staphylococcus aureus; settings: Staphylococcus aureus, ATCC25923, Gram-positive, Mueller-Hinton medium, 24 h, 37° C.
Method: as §1, §2, §3, §4, §5, §6, §7, §8, §9, §10, §11

[9] = tested on: P. aeruginosa ATCC27853; experiment: MIC determination by microplate dilution, P. aeruginosa human strain; format: cell-based, Pseudomonas aeruginosa; settings: Pseudomonas aeruginosa, ATCC27853, Gram-negative, Mueller-Hinton medium, 24 h, 37° C.
Method: as §1, §2, §3, §4, §5, §6, §7, §8, §9, §10, §11

[10] = tested on: P. aeruginosa (1051575); experiment: Potentiation of the doxycycline activity at 2 μg/mL; format: cell-based, Pseudomonas aeruginosa; settings: in combination with doxycycline 2 μg/mL; 24 h, 37°
[11] = Table III, WST1, CHO-K1 cells, 24 h, concentration reducing cell viability by 50%

SMILES	MIC [1]	MIC [2]	MIC [3]	MIC [4]	MIC [5]	IC50 [6, 11]	MIC [7]	MIC [8]	MIC [9]	MIC - P. aeruginosa (1051575): content of compound of formula (I) to restore the doxycycline activity (at 2 μg/mL) [10]	IC50 ([6]; CHO-K1, 24 h)
COC(=O)CC[C@@H](C)[C@H]1CCC2C3CCC4C[C@@H](NCCCNCCCNCCCN)CC[C@]4(C)C3CC[C@@]21C (stereo partly drawn) [Compound (17), methyl 3β-norsperminolithocholate]	4 µg/mL (≈ 7.13 µM)	28 µg/mL (≈ 49.9 µM)	7 µg/mL (≈ 12.5 µM)	4 µg/mL (≈ 7.13 µM)	4 µg/mL (≈ 7.13 µM)	14 µg/mL (≈ 25 µM)	7 µg/mL (≈ 12.5 µM)	16 µg/mL (≈ 28.5 µM)	28 µg/mL (≈ 49.9 µM)		
CC(C)OC(=O)CC[C@@H](C)[C@H]1CCC2C3C(C[C@H](O)[C@@]21C)[C@@]1(C)CC[C@H](NCCCN(CCCN)CCCN)CC1C[C@H]3O (stereo partly drawn) [(34), isopropyl 3β-(tris(3-aminopropyl)amine)cholate]	30 µg/mL (≈ 48.3 µM)	30 µg/mL (≈ 48.3 µM)	30 µg/mL (≈ 48.3 µM)	7 µg/mL (≈ 11.3 µM)	15 µg/mL (≈ 24.2 µM)		30 µg/mL (≈ 48.3 µM)	15 µg/mL (≈ 24.2 µM)	30 µg/mL (≈ 48.3 µM)	4 µg/mL	
COC(=O)CC[C@@H](C)[C@H]1CCC2C3CCC4C[C@@H](NCCCN(C)CCCN)CC[C@]4(C)C3CC[C@@]21C (stereo partly drawn) [(45), methyl 3β-(bis(3-aminopropyl)methylamine)lithocholate]	12 µg/mL (≈ 23.2 µM)	26 µg/mL (≈ 50.2 µM)	26 µg/mL (≈ 50.2 µM)	3 µg/mL (≈ 5.79 µM)	6 µg/mL (≈ 11.6 µM)	46 µg/mL (≈ 88.8 µM)	6 µg/mL (≈ 11.6 µM)	12 µg/mL (≈ 23.2 µM)	26 µg/mL (≈ 50.2 µM)		
COC(=O)CC[C@@H](C)[C@H]1CCC2C3C(CC[C@@]21C)[C@@]1(C)CC[C@H](NCCCNCCCNCCCN)CC1C[C@H]3O (stereo partly drawn) [Compound (8), methyl 3β-norsperminochenodeoxycholate]		15 µg/mL (≈ 26 µM)	7 µg/mL (≈ 12.1 µM)	2 µg/mL (≈ 3.47 µM)	4 µg/mL (≈ 6.93 µM)		29 µg/mL (≈ 50.3 µM)	4 µg/mL (≈ 6.93 µM)		1 µg/mL	22 µg/mL (≈ 38.1 µM)
COC(=O)CC[C@@H](C)[C@H]1CCC2C3C(C[C@H](O)[C@@]21C)[C@@]1(C)CC[C@H](NCCCNCCCN)C[C@H]1C[C@H]3O (stereo partly drawn) [Compound (5), methyl 3β-norspermidinocholate]	3 µg/mL (≈ 5.6 µM)	14 µg/mL (≈ 26.1 µM)		2 µg/mL (≈ 3.73 µM)	7 µg/mL (≈ 13.1 µM)		27 µg/mL (≈ 50.4 µM)	3 µg/mL (≈ 5.6 µM)	7 µg/mL (≈ 13.1 µM)		
CC(C)OC(=O)CC[C@@H](C)[C@H]1CCC2C3C(C[C@H](O)[C@@]21C)[C@@]1(C)CC[C@H](NCCN(CCN)CCN)CC1C[C@H]3O (stereo partly drawn) [(35), isopropyl 3β-(tris(2-aminoethyl)amine)cholate]	28 µg/mL (≈ 48.4 µM)	28 µg/mL (≈ 48.4 µM)	56 µg/mL (≈ 96.7 µM)	14 µg/mL (≈ 24.2 µM)			56 µg/mL (≈ 96.7 µM)	28 µg/mL (≈ 48.4 µM)	56 µg/mL (≈ 96.7 µM)	7 µg/mL	
COC(=O)CC[C@@H](C)[C@H]1CCC2C3CCC4C[C@@H](NCCCN(CCCN)CCCN)CC[C@]4(C)C3CC[C@@]21C (stereo partly drawn) [(46), methyl 3β-(tris(3-aminopropyl)amine)lithocholate]	14 µg/mL (≈ 25 µM)	56 µg/mL (≈ 99.8 µM)	28 µg/mL (≈ 49.9 µM)	4 µg/mL (≈ 7.13 µM)	7 µg/mL (≈ 12.5 µM)	30 µg/mL (≈ 53.5 µM)	28 µg/mL (≈ 49.9 µM)	14 µg/mL (≈ 25 µM)	28 µg/mL (≈ 49.9 µM)		
